Calls of active or inactive are those of the source.
Assays:
[1] = target: Nuclear receptor subfamily 5 group A member 2 (Homo sapiens, UniProt O00482); type: functional, cell-based;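 note: HEK293T cells transfected with LRH-1 and a StAR promoter luciferase reporter; potency for inhibitors that lower LRH-1 driven reporter light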
[2] = nonselective StAR promoter luciferase inhibitors – cell-based, luminescence, luciferase reporter, counter-screen for LRH-1 inverse agonist project, dose response (AID 651969); type: functional
Steroidogenic factor 1 = Steroidogenic factor 1 (Homo sapiens, UniProt Q13285); assay: Counterscreen for inverse agonists of the liver receptor homolog-1 (LRH-1; NR5A2): Luminescence-based cell-based high throughput dose response assay to identify inverse agonists of the Steroidogenic Factor 1 Nuclear Receptor (SF1; NR5A1).; type: functional
Sequence of Steroidogenic factor 1 (Q13285 whole entry): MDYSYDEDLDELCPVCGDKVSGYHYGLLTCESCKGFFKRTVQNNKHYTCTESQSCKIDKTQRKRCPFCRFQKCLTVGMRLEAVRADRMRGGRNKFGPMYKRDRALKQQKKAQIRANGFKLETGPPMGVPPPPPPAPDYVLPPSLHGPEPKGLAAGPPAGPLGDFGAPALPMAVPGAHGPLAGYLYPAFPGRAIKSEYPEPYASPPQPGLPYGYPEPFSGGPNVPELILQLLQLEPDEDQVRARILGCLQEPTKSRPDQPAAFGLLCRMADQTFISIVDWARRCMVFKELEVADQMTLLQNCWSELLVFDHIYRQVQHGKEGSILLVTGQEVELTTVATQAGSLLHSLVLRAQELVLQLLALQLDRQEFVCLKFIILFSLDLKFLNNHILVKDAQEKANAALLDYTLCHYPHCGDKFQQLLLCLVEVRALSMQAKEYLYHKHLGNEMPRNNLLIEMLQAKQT

[3] = target: T1, Low molecular weight phosphotyrosine protein phosphatase (Homo sapiens, UniProt P24666); type: functional; details: read-out: IC50_Mean
T1 sequence (P24666 whole entry): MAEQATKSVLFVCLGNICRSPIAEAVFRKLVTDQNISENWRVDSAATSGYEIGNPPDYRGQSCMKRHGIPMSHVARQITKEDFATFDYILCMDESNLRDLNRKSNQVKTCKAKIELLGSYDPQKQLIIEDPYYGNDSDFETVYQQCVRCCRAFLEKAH

[4] = target: T1, Low molecular weight phosphotyrosine protein phosphatase; type: functional; details: read-out: IC50_Mean; remark: listed apart in the source
[5] = target: T2, Tyrosine-protein phosphatase non-receptor type 22 (Homo sapiens, UniProt Q9Y2R2); assay: PTPN22 enzyme inhibitors – biochemical, fluorescence, LYP catalytic domain, selectivity assay for LMPTP inhibitor project, dose response (AID 652006); type: functional; details: read-out: IC50_Mean
T2 sequence (Q9Y2R2 whole entry): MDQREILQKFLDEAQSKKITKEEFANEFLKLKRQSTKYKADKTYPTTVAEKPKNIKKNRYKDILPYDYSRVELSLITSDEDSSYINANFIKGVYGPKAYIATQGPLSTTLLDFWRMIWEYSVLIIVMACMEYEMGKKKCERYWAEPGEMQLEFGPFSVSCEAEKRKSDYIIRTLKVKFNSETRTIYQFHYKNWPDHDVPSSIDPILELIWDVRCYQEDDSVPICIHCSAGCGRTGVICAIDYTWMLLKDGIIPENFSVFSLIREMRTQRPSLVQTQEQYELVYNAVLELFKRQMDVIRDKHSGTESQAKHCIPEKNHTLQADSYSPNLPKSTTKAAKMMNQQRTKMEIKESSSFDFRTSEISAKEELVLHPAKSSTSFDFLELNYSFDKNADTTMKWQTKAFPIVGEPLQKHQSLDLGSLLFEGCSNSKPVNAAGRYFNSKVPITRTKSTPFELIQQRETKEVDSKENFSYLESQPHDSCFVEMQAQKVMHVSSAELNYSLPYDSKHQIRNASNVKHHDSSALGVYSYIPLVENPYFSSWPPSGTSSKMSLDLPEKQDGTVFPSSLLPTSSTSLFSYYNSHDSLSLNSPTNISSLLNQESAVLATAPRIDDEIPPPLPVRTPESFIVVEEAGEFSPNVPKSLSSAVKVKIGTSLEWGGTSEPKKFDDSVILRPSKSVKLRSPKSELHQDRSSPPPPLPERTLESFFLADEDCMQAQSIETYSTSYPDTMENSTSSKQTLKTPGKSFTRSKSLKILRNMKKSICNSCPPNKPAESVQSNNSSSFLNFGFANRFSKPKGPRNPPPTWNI

[6] = Counterscreen for inhibitors of Trypanosoma brucei methionyl tRNA synthetase (MetRS): Luminescence-based cell-based high throughput dose response assay to identify compounds that are cytotoxic to Jurkat human T lymphocyte cells.; type: functional
[7] = target: T3, Methionyl-tRNA synthetase, putative (Trypanosoma brucei brucei, UniProt Q38C91); type: functional, Trypanosoma brucei brucei strain 927/4 GUTat10.1
T3 sequence (Q38C91 whole entry): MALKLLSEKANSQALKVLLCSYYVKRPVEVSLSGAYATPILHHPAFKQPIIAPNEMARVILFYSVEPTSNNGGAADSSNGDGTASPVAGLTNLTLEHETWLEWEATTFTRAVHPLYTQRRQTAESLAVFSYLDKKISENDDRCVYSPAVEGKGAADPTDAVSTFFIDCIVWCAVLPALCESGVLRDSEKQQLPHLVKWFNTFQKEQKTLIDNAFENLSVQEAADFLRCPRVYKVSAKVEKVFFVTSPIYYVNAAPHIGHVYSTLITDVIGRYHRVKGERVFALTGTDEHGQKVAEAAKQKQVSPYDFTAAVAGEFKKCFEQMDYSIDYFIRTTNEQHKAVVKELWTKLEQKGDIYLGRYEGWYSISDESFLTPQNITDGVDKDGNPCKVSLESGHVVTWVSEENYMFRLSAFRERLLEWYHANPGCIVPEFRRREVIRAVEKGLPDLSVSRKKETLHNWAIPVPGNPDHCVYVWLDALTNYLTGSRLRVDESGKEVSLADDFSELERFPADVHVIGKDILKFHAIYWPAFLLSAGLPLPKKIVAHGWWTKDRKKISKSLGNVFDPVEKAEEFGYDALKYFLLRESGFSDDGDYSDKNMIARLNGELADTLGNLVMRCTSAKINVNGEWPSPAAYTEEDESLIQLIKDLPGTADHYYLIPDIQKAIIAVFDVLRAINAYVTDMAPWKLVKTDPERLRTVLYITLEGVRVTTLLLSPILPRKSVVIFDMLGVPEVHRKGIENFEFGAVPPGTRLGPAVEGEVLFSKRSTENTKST

[8] = target: T3, Methionyl-tRNA synthetase, putative; type: functional, Trypanosoma brucei brucei strain 927/4 GUTat10.1; remark: listed apart in the source
INS1 = assay: INS-1E survival protection against cytokine death – cell-based, luminescence, retest, dose response (AID 449756); type: functional; details: Rattus norvegicus;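 note: cell death triggered by IL-1 beta plus TNF-alpha plus IFN-gamma mixture; protective hits raise ATP signal compared with cytokine alone wells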
[9] = Fluorescence-based cell-based high throughput dose response assay for inhibitors of the interaction of nucleotide-binding oligomerization domain containing 2 (NOD2) and the receptor-interacting serine-threonine kinase 2 (RIPK2).; type: functional; details: Homo sapiens
[10] = target: T4, Replicative DNA helicase DnaB (Mycobacterium tuberculosis, UniProt P9WMR3); assay: DnaB intein splicing inhibitors, dose response, biochemical, cell-free fluorescence (AID 449749); type: functional
T4 sequence (P9WMR3 whole entry): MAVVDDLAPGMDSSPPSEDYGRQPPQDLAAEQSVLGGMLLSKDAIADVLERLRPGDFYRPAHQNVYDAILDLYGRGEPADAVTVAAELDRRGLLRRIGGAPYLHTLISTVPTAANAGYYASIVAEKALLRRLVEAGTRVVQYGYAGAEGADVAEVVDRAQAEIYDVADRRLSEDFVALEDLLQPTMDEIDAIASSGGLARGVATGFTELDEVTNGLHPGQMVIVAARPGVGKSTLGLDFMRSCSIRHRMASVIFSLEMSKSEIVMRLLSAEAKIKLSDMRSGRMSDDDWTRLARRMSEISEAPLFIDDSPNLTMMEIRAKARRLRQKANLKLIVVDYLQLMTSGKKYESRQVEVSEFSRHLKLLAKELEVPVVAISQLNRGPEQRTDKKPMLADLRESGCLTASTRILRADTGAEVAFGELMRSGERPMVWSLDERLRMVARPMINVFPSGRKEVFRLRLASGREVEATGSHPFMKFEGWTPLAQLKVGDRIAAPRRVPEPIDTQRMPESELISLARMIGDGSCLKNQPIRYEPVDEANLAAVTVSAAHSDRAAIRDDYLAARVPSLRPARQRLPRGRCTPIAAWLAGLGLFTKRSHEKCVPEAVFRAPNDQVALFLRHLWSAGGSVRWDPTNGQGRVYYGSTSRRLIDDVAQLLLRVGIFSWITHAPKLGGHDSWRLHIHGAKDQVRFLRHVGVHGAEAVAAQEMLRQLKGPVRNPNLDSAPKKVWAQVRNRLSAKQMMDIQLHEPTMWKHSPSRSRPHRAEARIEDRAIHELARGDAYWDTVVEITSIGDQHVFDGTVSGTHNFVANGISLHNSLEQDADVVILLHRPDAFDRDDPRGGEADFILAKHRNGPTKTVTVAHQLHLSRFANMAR

Protein RecA = target: T5, Protein RecA (Mycobacterium tuberculosis, UniProt P9WHJ3); assay: Fluorescence Cell-Free Homogeneous Dose Retest to Identify Inhibitors of RecA-Intein Splicing Activity. [Related pubchem assays (depositor defined):AID2097, AID2223, AID489010, AID492950]; type: functional
T5 sequence (P9WHJ3 whole entry): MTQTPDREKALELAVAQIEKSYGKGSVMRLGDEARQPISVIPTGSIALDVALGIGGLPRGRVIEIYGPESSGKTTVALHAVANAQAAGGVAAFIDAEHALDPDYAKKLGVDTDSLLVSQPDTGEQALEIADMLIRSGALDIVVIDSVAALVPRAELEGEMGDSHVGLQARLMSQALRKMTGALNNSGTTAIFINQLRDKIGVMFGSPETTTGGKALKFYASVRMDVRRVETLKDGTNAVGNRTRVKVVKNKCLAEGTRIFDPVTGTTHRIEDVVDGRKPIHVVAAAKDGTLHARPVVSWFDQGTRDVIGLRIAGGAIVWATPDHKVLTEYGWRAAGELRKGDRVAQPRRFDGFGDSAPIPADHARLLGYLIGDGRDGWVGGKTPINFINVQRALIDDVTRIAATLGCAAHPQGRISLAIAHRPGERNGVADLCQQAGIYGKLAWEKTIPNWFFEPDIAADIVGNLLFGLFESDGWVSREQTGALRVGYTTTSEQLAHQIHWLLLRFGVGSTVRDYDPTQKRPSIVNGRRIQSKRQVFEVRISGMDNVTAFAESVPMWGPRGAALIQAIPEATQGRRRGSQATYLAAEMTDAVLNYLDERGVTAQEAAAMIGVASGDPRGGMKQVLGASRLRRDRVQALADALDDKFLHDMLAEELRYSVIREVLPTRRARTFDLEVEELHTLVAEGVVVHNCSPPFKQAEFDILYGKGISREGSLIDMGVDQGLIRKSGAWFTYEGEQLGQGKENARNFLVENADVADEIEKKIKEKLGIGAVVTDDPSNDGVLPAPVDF

[11] = target: Neurotensin receptor type 1 (Homo sapiens, UniProt P30989); type: functional;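 note: Image-based confirmatory dose-response assay measuring agonist activity at NTR1; NTR1-expressing U2OS osteosarcoma cells imaged for beta-arrestin GFP spot formation; agonist potency where compounds increase beta-arrestin recruitment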
Sequence of Neurotensin receptor type 1 (P30989 whole entry): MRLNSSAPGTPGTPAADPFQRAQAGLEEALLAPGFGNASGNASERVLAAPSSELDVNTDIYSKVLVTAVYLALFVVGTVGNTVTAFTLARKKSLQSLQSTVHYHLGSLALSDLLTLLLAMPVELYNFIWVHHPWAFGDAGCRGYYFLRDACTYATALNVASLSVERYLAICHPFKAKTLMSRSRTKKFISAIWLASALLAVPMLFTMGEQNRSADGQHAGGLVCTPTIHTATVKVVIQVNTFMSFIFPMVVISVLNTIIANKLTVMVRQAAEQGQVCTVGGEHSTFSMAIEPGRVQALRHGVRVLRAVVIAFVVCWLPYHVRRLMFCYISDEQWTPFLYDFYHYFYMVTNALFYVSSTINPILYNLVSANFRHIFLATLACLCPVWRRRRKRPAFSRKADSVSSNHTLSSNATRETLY

Beta Lactamase = Beta Lactamase (Pseudomonas aeruginosa, UniProt Q932Y6); assay: BLA reporter interference, concentration series – BLA reporter cells, FRET fluorescence, artefact control for NOD2-RIPK2 interaction inhibitor project, dose response (AID 651552); type: functional, cell-based
Sequence of Beta Lactamase (Q932Y6 whole entry): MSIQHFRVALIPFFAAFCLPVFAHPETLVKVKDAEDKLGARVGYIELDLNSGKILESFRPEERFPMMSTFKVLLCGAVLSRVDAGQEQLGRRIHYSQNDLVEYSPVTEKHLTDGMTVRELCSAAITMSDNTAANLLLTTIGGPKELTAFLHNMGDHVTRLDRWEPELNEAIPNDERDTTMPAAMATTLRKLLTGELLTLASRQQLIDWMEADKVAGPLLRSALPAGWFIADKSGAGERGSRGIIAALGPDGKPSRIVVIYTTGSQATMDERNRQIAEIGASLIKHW

[12] = target: T6, Heat shock factor protein 1 (Mus musculus, UniProt P38532); assay: decrease of HSF1-responsive luciferase luminescence – cell-based, NIH3T3, dose retest, confirmation (AID 2382); type: functional;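 note: NIH3T3 fibroblasts with HSF1-driven luciferase reporter stressed by proteasome inhibitor MG132; luminescence from HSF1-driven luciferase expression after 8 hours of MG132 stress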
T6 sequence (P38532 whole entry): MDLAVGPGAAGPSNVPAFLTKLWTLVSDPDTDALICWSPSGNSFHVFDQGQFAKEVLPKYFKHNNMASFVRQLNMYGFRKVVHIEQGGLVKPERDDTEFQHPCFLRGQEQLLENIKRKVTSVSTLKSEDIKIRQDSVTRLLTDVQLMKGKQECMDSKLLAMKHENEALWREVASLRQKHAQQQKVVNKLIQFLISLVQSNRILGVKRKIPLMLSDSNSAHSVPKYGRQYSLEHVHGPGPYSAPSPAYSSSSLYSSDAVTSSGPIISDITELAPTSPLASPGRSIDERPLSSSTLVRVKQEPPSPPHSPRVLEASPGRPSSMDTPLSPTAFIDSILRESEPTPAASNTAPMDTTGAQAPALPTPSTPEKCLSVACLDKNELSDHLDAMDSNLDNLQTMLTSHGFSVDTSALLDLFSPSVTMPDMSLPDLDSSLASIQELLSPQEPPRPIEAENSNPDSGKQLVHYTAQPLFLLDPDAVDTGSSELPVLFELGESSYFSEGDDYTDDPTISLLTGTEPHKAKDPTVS

[13] = target: T7, Delta-type opioid receptor (Homo sapiens, UniProt P41143); assay: HTS Image-Based Screen for Antagonists of the DOR Receptor. [Related pubchem assays (depositor defined):AID1777, AID1785, AID1786, AID2133]; type: functional
T7 sequence (P41143 whole entry): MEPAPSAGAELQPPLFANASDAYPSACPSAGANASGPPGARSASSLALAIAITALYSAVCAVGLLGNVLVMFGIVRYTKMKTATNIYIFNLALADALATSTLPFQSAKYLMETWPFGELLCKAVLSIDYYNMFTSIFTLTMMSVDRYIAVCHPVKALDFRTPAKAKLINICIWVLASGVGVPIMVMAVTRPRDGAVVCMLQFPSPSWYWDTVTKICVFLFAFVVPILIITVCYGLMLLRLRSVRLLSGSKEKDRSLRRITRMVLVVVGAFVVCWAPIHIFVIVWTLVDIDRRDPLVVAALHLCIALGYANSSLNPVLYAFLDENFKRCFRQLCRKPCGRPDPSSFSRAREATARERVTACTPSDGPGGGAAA

[14] = viability loss in HeLa cells – cytotoxicity control for MgcRacGAP inhibitor project, dose response (AID 624300); type: functional
[15] = target: T8, Kappa-type opioid receptor (Homo sapiens, UniProt P41145); type: functional
T8 sequence (P41145 whole entry): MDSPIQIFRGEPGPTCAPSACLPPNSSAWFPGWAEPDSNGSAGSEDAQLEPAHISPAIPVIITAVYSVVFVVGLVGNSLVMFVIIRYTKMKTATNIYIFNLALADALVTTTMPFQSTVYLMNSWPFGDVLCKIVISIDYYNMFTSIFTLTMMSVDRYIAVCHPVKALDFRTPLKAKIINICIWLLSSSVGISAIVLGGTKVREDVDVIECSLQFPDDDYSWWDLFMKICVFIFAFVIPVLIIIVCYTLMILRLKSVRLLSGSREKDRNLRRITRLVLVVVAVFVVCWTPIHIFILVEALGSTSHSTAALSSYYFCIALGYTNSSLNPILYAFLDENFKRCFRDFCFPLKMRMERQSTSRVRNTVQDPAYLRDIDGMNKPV

[16] = target: T8, Kappa-type opioid receptor; type: functional; remark: listed apart in the source
Mu-type opioid receptor = Mu-type opioid receptor (Homo sapiens, UniProt P35372); assay: HTS Image-Based Screen for Agonists of the MOR Receptor. [Related pubchem assays (depositor defined):AID1777, AID1785, AID1786, AID2133]; type: functional;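 note: imaging of beta-arrestin GFP recruitment into spots after receptor activation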
Sequence of Mu-type opioid receptor (P35372 whole entry): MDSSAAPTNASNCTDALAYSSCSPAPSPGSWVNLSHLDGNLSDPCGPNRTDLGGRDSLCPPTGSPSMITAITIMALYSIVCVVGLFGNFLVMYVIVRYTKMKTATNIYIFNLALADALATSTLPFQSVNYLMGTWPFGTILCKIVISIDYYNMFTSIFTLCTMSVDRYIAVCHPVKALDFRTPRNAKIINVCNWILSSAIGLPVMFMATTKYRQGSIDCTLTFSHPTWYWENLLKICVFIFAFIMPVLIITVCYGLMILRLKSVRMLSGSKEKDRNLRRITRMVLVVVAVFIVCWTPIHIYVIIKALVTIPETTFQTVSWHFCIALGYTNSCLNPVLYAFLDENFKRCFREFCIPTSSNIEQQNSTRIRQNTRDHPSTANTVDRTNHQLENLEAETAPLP

[17] = target: T7, Delta-type opioid receptor; assay: HTS Image-Based Screen for Agonists of the DOR Receptor. [Related pubchem assays (depositor defined):AID1777, AID1786, AID2133]; type: functional
Beta-galactosidase = Beta-galactosidase (Escherichia coli, UniProt Q8VNN2); type: functional
Sequence of Beta-galactosidase (Q8VNN2 whole entry): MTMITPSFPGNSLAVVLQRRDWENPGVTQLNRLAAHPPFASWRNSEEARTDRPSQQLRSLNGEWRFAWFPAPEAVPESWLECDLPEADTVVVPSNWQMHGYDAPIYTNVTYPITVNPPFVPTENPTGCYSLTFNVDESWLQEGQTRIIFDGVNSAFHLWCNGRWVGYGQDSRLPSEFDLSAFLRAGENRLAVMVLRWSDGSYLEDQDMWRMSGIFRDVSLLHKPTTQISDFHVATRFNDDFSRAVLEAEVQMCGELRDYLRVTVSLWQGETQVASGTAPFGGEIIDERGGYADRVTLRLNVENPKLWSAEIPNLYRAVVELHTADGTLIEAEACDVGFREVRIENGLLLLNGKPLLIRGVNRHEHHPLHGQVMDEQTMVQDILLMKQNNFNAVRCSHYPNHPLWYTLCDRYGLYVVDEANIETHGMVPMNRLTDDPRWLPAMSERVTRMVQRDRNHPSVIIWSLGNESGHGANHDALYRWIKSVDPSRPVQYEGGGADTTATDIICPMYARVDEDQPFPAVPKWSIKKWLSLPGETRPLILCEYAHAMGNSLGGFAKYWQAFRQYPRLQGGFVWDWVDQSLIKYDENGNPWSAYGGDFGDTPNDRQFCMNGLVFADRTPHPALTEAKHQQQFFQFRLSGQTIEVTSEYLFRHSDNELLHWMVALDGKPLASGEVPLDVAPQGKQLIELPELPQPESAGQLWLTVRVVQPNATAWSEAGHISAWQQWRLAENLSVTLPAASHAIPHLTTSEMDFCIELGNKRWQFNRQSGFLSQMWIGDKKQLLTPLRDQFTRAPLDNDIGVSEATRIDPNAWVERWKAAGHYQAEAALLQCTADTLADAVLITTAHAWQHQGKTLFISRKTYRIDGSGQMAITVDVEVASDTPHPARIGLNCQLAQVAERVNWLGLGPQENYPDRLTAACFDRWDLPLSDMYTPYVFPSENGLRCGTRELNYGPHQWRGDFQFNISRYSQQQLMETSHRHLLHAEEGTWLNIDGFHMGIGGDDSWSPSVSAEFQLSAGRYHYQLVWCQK

[18] = target: T9, Rac GTPase-activating protein 1 (Homo sapiens, UniProt Q9H0H5); assay: blockers of MgcRacGAP-driven Rac1 GTP hydrolysis – biochemical, ADP Hunter fluorescence, primary and confirmatory, confirmation (AID 624330); type: functional
T9 sequence (Q9H0H5 whole entry): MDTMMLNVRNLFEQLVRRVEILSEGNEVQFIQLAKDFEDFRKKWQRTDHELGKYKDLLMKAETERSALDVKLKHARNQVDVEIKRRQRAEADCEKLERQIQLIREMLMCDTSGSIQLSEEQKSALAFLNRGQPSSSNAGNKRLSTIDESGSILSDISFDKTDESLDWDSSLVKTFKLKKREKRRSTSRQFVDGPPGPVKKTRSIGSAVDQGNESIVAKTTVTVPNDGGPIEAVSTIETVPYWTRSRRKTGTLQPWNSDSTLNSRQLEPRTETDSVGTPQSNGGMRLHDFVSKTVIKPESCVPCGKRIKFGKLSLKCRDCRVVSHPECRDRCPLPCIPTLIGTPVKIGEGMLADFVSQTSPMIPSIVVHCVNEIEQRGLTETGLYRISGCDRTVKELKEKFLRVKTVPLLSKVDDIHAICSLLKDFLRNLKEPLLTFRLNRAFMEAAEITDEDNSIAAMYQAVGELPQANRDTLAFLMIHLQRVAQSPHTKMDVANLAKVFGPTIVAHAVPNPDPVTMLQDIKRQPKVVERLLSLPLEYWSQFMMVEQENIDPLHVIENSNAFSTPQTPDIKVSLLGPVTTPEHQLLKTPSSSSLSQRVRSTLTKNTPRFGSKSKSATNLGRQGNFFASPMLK

[19] = mouse fibroblast viability loss – cell-based, cherry-pick samples, set 2, cytotoxicity control for T. cruzi growth inhibitor project, dose response (AID 651817); type: functional; details: NIH3T3

Sequence of Nuclear receptor subfamily 5 group A member 2 (O00482 whole entry): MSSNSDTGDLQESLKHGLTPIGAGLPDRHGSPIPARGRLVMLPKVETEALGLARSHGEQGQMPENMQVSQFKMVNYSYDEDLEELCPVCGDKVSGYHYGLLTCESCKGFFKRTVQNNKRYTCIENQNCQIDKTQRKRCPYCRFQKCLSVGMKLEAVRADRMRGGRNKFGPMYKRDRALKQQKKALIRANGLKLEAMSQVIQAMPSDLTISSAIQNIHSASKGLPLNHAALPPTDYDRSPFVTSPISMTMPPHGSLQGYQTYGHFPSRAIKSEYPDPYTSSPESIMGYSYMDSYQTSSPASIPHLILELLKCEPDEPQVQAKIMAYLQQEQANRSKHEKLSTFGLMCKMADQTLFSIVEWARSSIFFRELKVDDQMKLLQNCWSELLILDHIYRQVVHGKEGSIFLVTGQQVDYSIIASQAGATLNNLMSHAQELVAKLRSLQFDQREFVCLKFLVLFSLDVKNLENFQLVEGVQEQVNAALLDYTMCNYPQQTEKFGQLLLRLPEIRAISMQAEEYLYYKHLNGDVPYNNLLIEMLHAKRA

## CCOCC(=O)Nc1ccc(S(=O)(=O)NCCc2ccccc2)cc1
[1]
  IC50: 18.4 µM (inactive)
[2]
  IC50: 35.9 µM (inactive)
Steroidogenic factor 1
  IC50: 5.7 µM (active)

## COc1cccc(N2CCN(C(=O)c3ccc(CSc4nc5cc[nH]cc-5n4)cc3)CC2)c1
[3]
  IC50: 14.3 µM (active)
[4]
  IC50: > 80 µM (inactive)
[5]
  IC50: 65 µM (inactive)

## O=C(NCc1nc2ccccc2[nH]1)C1=C[C@@H](C2CCCCC2)C[C@@H](OCc2ccc(CO)cc2)O1
[6]
  IC50: 38.9 µM (inactive)
[7]
  IC50: 6.42 µM (active)
[8]
  IC50: 2.85 µM (active)
INS1
  AC50: 13.1 µM (active)

## Cn1ccnc1Sc1cc(NCCCO)c([N+](=O)[O-])c2nonc12
[9]
  IC50: 5.86 µM (active)
[10]
  AC50: 8.37 µM (active)
Protein RecA
  EC50: 3.32 µM (active)
[11]
  EC50: 13.2 µM (active)
Beta Lactamase
  IC50: 18.2 µM (inactive)
[12]
  EC50: 11.8 µM (active)

## COc1cc(/C=C/c2sc3ccccc3[n+]2CCCS(=O)(=O)[O-])ccc1O
[13]
  IC50: > 32 µM (inactive)
[10]
  AC50: > 380 µM (inactive)
[14]
  CC50: 100 µM (active)
Protein RecA
  EC50: 16.2 µM (active)
[15]
  IC50: > 32 µM
[16]
  IC50: 19.1 µM (active)
Mu-type opioid receptor
  EC50: > 32 µM (inactive)
[17]
  EC50: > 32 µM (inactive)
Beta-galactosidase
  EC50: 14.1 µM (active)
[18]
  IC50: 20.5 µM (active)

## C[C@H](CO)N1C[C@H](C)[C@H](CN(C)S(=O)(=O)c2ccccc2)Oc2c(NC(=O)c3nc4ccccc4s3)cccc2C1=O
[19]
  AC50: 22.6 µM (active)

From ChEMBL document CHEMBL1201862, “PubChem BioAssay data set” (2004)
